Here are results for 1 compound from US6677298B2, “Regulators of PPARδ (β) and their use in the treatment of obesity and insulin resistance” (Bristol-Myers Squibb Company, priority 2000, dated 2004).

One assay has as its target T1, Gal4/PPARδ(β) (Homo sapiens, UniProt Q03181).
T1 construct: human PPARδ(β) LBD (amino acid 139-441); {Schmidt et al; expressed in transfected cells; host or cells: CHO cells, stably transfected
Briefly: Cell based transactivation assay, δ agonist mode (Gal4 RE driven SEAP reporter in CHO cells). Particulars: CHO cells stably transfected with Gal4/PPARδ(β); 3.16-31600 nM; FIG. 4.

The next assay concerns the target T2, PPARδ(β) LBD (Homo sapiens, UniProt Q03181).
T2 construct: His-tagged PPARδ(β) LBD (amino acid 139-441, Schmidt et al); made in house; host or cells: E. coli (crude lysate supernatant used)
T2 sequence (Q03181 139-441): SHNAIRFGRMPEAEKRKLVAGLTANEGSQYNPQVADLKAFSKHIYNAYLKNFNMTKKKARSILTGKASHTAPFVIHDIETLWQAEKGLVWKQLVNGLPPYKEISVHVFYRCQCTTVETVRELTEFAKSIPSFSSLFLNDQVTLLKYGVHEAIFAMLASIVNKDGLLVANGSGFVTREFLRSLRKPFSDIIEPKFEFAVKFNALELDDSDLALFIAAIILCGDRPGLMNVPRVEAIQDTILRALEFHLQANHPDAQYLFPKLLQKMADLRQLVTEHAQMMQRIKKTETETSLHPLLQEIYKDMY
The experiment in a line: In vitro PPARδ(β) LBD ligand binding assay (SPA, 3H-labeled ligand displacement). Particulars: 50 nM 3H-labeled ligand, His-tagged LBD bacterial lysate, SPA beads, 1 hour room temperature; read-out: IC50, half maximal inhibition/displacement of 3H labeled PPARδ(β) ligand binding to PPARδ(β) LBD. The text has this:
FIG. 3: Illustrates results from a PPARδ(β) ligand binding assay.
This invention also provides methods for screening and identification of compounds that bind to and/or regulate PPARδ(β). The PPARδ(β) ligand binding domain (LBD) from a mammalian species including human and/or a non-mammalian species such as frog (Xenopus), is used for screening for compounds that bind to the LBD (Schmidt et al, Mol. Endocrinology, 6:1634-1641, 1992; Evans et al., Sequence XR-4 in U.S. Pat. No. 5,571,696, 1996; Berger et al. J. Biol. Chem., 274:6718-6725, 1999). […]
A single E.coli colony containing His-tagged PPARδ(β) LBD (amino acid 139-441, Schmidt et al., Mol. Endocrinology, 6:1634-1641, 1992) expressing plasmid DNA is mixed with 3 ml Luria broth (LB) supplemented with 100 μg/ml antibiotic ampicilin and grown at 37° C. […] The plates are then read on Packard top-count beta-scintillation counter (1 minute/well). […] In this binding assay any test compound may replace L-165041 and the binding affinity for PPARδ(β) is easily determined.
A general note: In a radioligand displacement assay an active substance lowers the binding of a labelled ligand.

SMILES strings stand for the structures. Entries after “also recorded” stand apart in the source; their conditions may differ.

T1 sequence (P04386 1-144 partner limits assumed, one chain of several): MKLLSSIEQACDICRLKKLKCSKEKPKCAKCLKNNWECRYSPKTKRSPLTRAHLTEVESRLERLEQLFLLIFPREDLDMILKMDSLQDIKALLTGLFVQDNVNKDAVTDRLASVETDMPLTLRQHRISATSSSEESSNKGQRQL

`CCCc1c(OCCCOc2ccc(OCC(=O)O)cc2)ccc(C(C)=O)c1O` [Compound L-165041]: the “Induction of SEAP reporter gene activity” value at Gal4/PPARδ(β) is “dose dependent activation of reporter gene SEAP function; also recorded: dose dependently induced reporter gene activity”. Besides, at PPARδ(β) LBD, the IC50 was 52 nM.
